{
  "source": "patent US8367801B2",
  "about": "“Proteinaceous compounds” (Endocrine Pharmaceuticals Limited, priority 2008, dated 2013)",
  "key": {"[1]": {"system": "PC3 prostate cancer cells", "assay": "Tumour cell viability, Alamar Blue", "type": "cell-based", "conditions": "48 hours; mean n = 3, SEMs < 5%; camptothecin at 3 μmol", "description": "(§1) The effects of micrin on viability of tumour cells were determined using MCF7 breast cancer cells and PC3 prostate cancer cells. Cells were plated out to provide 2×10^4 cells in 2 cm^2 wells in Dulbecco's modified Eagles medium (DMEM) containing 10% foetal calf serum (FCS), antibiotics and a stabilised substitute for glutamine (Glutamax, Invitrogen UK). The cells were allowed to attach overnight. The medium was removed and the cells were washed several times with fresh medium, and then treated with test or control samples diluted in medium.\n(§2) Test and control samples were produced according to an ion exchange method using 120 ml sheep ovarian follicular fluid as the starting material. Follicular fluid obtained by aspiration of abattoir-derived sheep ovaries was centrifuged at +4° C. and 2000 g for 10 minutes, then spun through Amicon Centriprep-30 cartridges at 1800 g to give a nominal 0-30 kD fraction. This fraction was spun through Amicon Centriprep-3 cartridges to give a nominal 3-30 kD sub-fraction. […]\n(§3) Camptothecin, an inducer of apoptosis, was used as a positive control at 3 μmol. After 48 hours the medium was changed for fresh medium and the number of remaining viable cells was quantitated using Alamar Blue. The number of viable cells in the micrin and camptothecin samples were expressed as a percentage of the number of viable cells in the micrin-free control samples. […]"}, "[2]": {"system": "MCF7 breast cancer cells", "assay": "Tumour cell viability, Alamar Blue", "type": "cell-based, human", "conditions": "48 hours; mean n = 3, SEMs < 5%; camptothecin at 3 μmol", "description": "as §1, §2, §3"}},
  "data": [
    {"compound": "CC[C@@]1(O)C(=O)OCc2c1cc1n(c2=O)Cc2cc3ccccc3nc2-1", "note": "[Camptothecin]", "values": [
      {"measurement": "Viability (% micrin-free control) PC3 (prostate cancer)", "setting": "[1]", "result": 43.9, "unit": "% micrin-free control"},
      {"measurement": "Viability (% micrin-free control) MCF-7 (breast cancer)", "setting": "[2]", "result": 56.2, "unit": "% micrin-free control"}
    ]}
  ]
}
